The values that follow come from US20060280725A1, “Compositions and methods of treating and diagnosing hepatoma” (priority 2003, published 2006).

SMILES strings stand for the structures. Read-outs that look alike come from different tables or passages of the source.

For orientation: Km means the substrate concentration at which the rate is half of its maximum.

For experiment [1], the system named is Focus. The experiment is described as follows: Glutamine transport assay (initial-rate uptake, kinetic analysis). Format: cell-based, human. The procedure: (§1) Glutamine Transport Assays. Measurement of initial-rate glutamine uptake was carried out via the cluster-tray method originally described by Gazzola (21) as reported previously (6, 9). Briefly, after trypsinization hepatoma cells were plated at a density of 1×10^5 cells/well in 24-well culture plates (Costar Corp., Cambridge, Mass.) and allowed to grow to >80% confluence, typically one to two days later. For initial-rate measurements, the radiotracer utilized was L-[G-^3H] glutamine (Amersham Corp., Arlington Heights, Ill.) at 4 μCi/ml, in the presence of unlabeled L-glutamine at 50 μM. For kinetic studies, the amount of unlabeled glutamine in the transport buffer varied from 10 μM to 10 mM. All transport measurements were carried out at 37° C. and were terminated after 30 s by three rapid washes with an ice-cold phosphate-buffered saline solution. Intracellular radiolabeled glutamine was extracted with 0.2 ml/well of 0.2% sodium dodecyl sulfate (SDS) and 0.2 N NaOH; after 1 h, 0.1 ml of the lysate was neutralized with 10 μl of 2 N HCl and subjected to scintillation spectrophotometry in a Packard TopCount™ (Packard Instruments, Meriden, Conn.). The remaining lysate was utilized for the determination of cellular protein by the bicinchoninic acid (BCA) method (Pierce Chemical Co., Rockford, Ill.). Rates of glutamine transport were calculated from the cpm per sample, the specific activity of the uptake mix (in cpm/nmol) and normalized to cellular protein content in a Microsoft Excel® spreadsheet program. Transport values obtained in the absence of extracellular Na^+ (diffusion and Na^+-independent uptake) were subtracted from those in the presence of Na^+ (total uptake) to yield Na^+-dependent rates which are reported in units of nmol•mg^−1 protein•30 s^−1. All transport values depicted are the average±standard deviation of four separate determinations. Kinetic analysis of Eadie-Hofstee linearized transport data (v vs. v/[L-GLN]) was performed by regression analysis (Cricket Graph®, Computer Associates, Islandia, N.Y.). Nonlinear regression analysis was performed with DataDesk (Data Description, Inc. Ithaca, N.Y.) and Excel for two component Michaelis-Menten kinetics: v=((Vmax1×[S])/(Km1+[S])+(Vmax2×[S])/(Km2+[S])).
(§2) Therefore, two component nonlinear regression analyses were performed on the Na^+-dependent transport kinetic data, where they were adequately resolved into high and low affinity components in all cell lines under study. The results are graphically depicted in FIG. 1 as insets. […] Possibilities for each cell line will be offered discussion based on the molecular analyses described below.

In experiment [2] the test system is Hep3B. The description is as above. Format: cell-based, human. The procedure:
as §1, §2

The subject of experiment [3] is Huh-7. The description is as above. Format: cell-based, human. Here is the method: as §1, §2
The subject of experiment [4] is PLC/PRF/5. The description is as above. Type of experiment: cell-based, human. The procedure:
as §1, §2

Experiment [5] concerns THLE-5B. The experiment is described as follows: Glutamine transport assay (inhibition and kinetic analysis). Format: cell-based, human. The procedure:
FIG. 1. Amino acid inhibition analysis of glutamine transport in the Hep3B, PLC/PRF/5 and Focus human hepatoma cell lines and the THLE-5B SV40-immortalized human liver epithelial cell line. The Na^+-dependent transport of 50 μM L-glutamine was measured as described in the Methods section in the absence or presence of the indicated unlabeled amino acids at 5 mM. Testing of cysteine (CYSH) required the presence of 5 mM dithiothreitol (DTT) as a reducing agent, so DTT was tested alone as well. Arrows indicate the relative transport rates for 50 μM L-glutamine in primary human adult (solid arrow) and fetal (open arrow) hepatocytes. The results represent the average±SD of four separate determinations (*p<0.010 versus control). The Eadie-Hofstee plots of the kinetic analyses are shown as an inset in each figure, with the dashed lines representing the resolved high and low affinity components of the composite data (solid line). The derived values of the kinetic constants for each component are given in the Results section.
as §1
It should be noted that extensive depletion of intracellular amino acid pools were not performed prior to transport measurements in these studies because we sought to assess glutamine uptake under more physiological conditions. […]

The subject of experiment [6] is System A & N isoforms. The settings on record: read-out: deduced Km values for glutamine; cited from earlier work.
Setting [7] is: read-out: Km, high affinity component.
The mark [8] stands for this setting: read-out: Km, low affinity system.
The mark [9] stands for this setting: read-out: Km, high affinity system.
[10] abbreviates: read-out: Km, low affinity component.

Regarding `NC(=O)CC[C@H](N)C(=O)O` [glutamine, L-glutamine], the results for the “Vmax, high affinity component” value in experiment [1], in experiment [3] and in experiment [5] were 2.2 nmol•mg^−1 protein•30 s^−1, 7.3 nmol•mg^−1 protein•30 s^−1 and 30.8 nmol•mg^−1 protein•30 s^−1, respectively. In addition, the “Vmax, low affinity system” value in experiment [1] was 2.7 nmol•mg^−1 protein•30 s^−1; in experiment [2] it was 4.5 nmol•mg^−1 protein•30 s^−1; in experiment [4], 3.9 nmol•mg^−1 protein•30 s^−1. The Km came out at 122 µM in experiment [1] (setting [7]); 1200 µM in experiment [1] (setting [8]); 1000 µM in experiment [2] (Na+-dependent glutamine transport, read-out: Km, low affinity system); 90 µM in experiment [2] (setting [9]); 50 µM in experiment [3] (setting [7]); 861 µM in experiment [3] (setting [10]). Also, the Km is 23 µM in experiment [4] (setting [9]); 775 µM in experiment [4] (setting [8]); 135 µM in experiment [5] (setting [7]); 1300 µM in experiment [5] (setting [10]); 1000 to 3000 µM in experiment [6]. The “Vmax, high affinity system” value in experiment [2] was 3.0 nmol•mg^−1 protein•30 s^−1; in experiment [4] it was 0.82 nmol•mg^−1 protein•30 s^−1. The figures for the “Vmax, low affinity component” value in experiment [3] and in experiment [5] were 11.7 nmol•mg^−1 protein•30 s^−1 and 32.6 nmol•mg^−1 protein•30 s^−1, respectively.
